Patent US4874869A, “Hydantoin derivatives and medicines containing the same” (Eisai Co., Ltd., priority 1980, dated 1989)
Where two headings read alike, the source gives them in different places.

Columns and labels:
[1] = tested on: sorbitol accumulation in the lens and the sciatic nerve; assay: Reduction or inhibition of sorbitol accumulation in the lens and the sciatic nerve of streptozotocin-induced diabetic rats; assay type: in vivo, rat; details: for Inhibition of sorbitol accumulation: vs no compound; for higher activities such as the inhibition of sorbitol accumulation, predominant diastereomer compared with the other isomer: predominant vs minor diastereomer; for superior effect on the inhibition of sorbitol accumulation in comparison with the control compound: vs control compound, Table 1
Method: The compounds listed in Tables 1 and 2 were tested for the ability to reduce or inhibit the accumulation of sorbitol in the lens and the sciatic nerve of streptozotocin-induced diabetic rats by the method of M. J. Peterson et al., [Metabolism, Vol. 28, No. 4, Supply. 1 (April), 456-461 (1979)]. […] In this experiment, the amount of sorbitol accumulation in the lens and the sciatic nerve of the rat was measured 28 hours after induction of diabetes.
The compounds listed in Tables 1 and 2 were orally administered at, the dose levels indicated in the Tables, 4, 8 and 25 hours after the administration of the streptozotocin.

[2] = tested on: cataract formation in galactosemic rats; assay: Effect on cataract formation in galactosemic rats (visual observation of lenticular opacities); assay type: in vivo, male Sprague-Dawley rats; details: for lenticular opacities, number with grade + / lenticular opacities, number with grade - (no opacity) / lenticular opacities, number with grade ++ / lenticular opacities, number with grade +++: 16th day, total 6
Method: (§1) On the 16th day of the study (24 hours after the final administration) lenticular opacities were observed, and then the lens and the sciatic nerve were enucleated to determine the content of carbohydrates.
The abscissa in FIG. 1 indicates the number of days from the beginning of feeding of a 30% galactose diet, and the ordinate indicates the percentages of appearance of the cataract.
In Table 3, a symbol - represents the case of no opacity and +, ++, +++ show the grade of the opacity, respectively.

[3] = tested on: galactitol accumulation in the lens and the sciatic nerve; assay: Inhibition of galactitol accumulation in the lens and the sciatic nerve of galactosemic rats; assay type: in vivo, male Sprague-Dawley rats; details: for Inhibition of galactitol accumulation: 16th day
Method: as §1

aldose reductase = target: T1, aldose reductase (Bos taurus, UniProt P16116); assay: Inhibition effect on aldose reductase; assay type: biochemical; details: for activity of the d-type relative to the dl-type product: aldose reductase
T1 construct: Aldose reductase was prepared by the method of Hayman et al; from tissue
Method: Aldose reductase was prepared by the method of Hayman et al. [S. Hayman and K.K. Kinoshita; Journal of Biological Chemistry, Vol. 240, p.

[4] = lens, 5 mg/kg oral, 4, 8 and 25 h after streptozotocin
[5] = sciatic nerve, 5 mg/kg oral, 4, 8 and 25 h after streptozotocin
[6] = lens, 10 mg/kg oral, 4, 8 and 25 h after streptozotocin
[7] = sciatic nerve, 10 mg/kg oral, 4, 8 and 25 h after streptozotocin
[8] = lens, 0.2 mg/kg oral, 4, 8 and 25 h after streptozotocin
[9] = lens, 1 mg/kg oral, 4, 8 and 25 h after streptozotocin
[10] = sciatic nerve, 0.2 mg/kg oral, 4, 8 and 25 h after streptozotocin
[11] = sciatic nerve, 1 mg/kg oral, 4, 8 and 25 h after streptozotocin
[12] = right, 25 mg/kg oral once a day
[13] = sciatic nerve, 1 mg/kg oral once a day
[14] = sciatic nerve, 5 mg/kg oral once a day
[15] = sciatic nerve, 25 mg/kg oral once a day
[16] = Table 5, read-out: ID50 (concentration of 50% inhibition on aldose reductase)
[17] = similar manner as in Experiment 3, d-type vs dl-type product, read-out: ID50, inhibition effect on the Aldose reductase

Inhibition on aldose reductase (aldose reductase; 3 × 10^-6 (M))	Inhibition on aldose reductase (aldose reductase; 3 × 10^-7 (M))	Inhibition on aldose reductase (aldose reductase; 10^-6 (M))	Inhibition on aldose reductase (aldose reductase; 10^-7 (M))	IC50 (aldose reductase; [16])	IC50 (aldose reductase; [17])	Structure (SMILES)	Inhibition of sorbitol accumulation [1, 4]	Inhibition of sorbitol accumulation [1, 5]	Inhibition of sorbitol accumulation [1, 6]	Inhibition of sorbitol accumulation [1, 7]	Inhibition of sorbitol accumulation [1, 8]	Inhibition of sorbitol accumulation [1, 9]	Inhibition of sorbitol accumulation [1, 10]	Inhibition of sorbitol accumulation [1, 11]	further results
						CC1CC2(NC(=O)NC2=O)c2ccccc2O1 (stereo not drawn) [2-Methyl-spiro-[chroman-4,4'-imidazolidine]-2',5'-dione]	54%	77%							
						CC1Oc2ccc(Cl)cc2C12NC(=O)NC2=O (stereo not drawn) [5-Chloro-2-methyl-spiro-[benzofuran-3,4'-imidazolidine]-2',5'-dione]			95%	45%					
						CC1CC2(NC(=O)NC2=O)c2cc(Cl)c(Cl)cc2O1 (stereo not drawn) [6,7-Dichloro-2-methyl-spiro-[chroman-4,4'-imidazolidine]-2',5'-dione]	88%								
						CC1(C)CC2(NC(=O)NC2=O)c2cc(Cl)cc(Cl)c2O1 (stereo not drawn) [6,8-Dichloro-2,2-dimethyl-spiro-[chroman-4,4'-imidazolidine]-2',5'-dione]			87%	55%					
						CC1(C)CC2(NC(=O)NC2=O)c2cc(Br)ccc2O1 (stereo not drawn) [6-Bromo-2,2-dimethyl-spiro-[chroman-4,4'-imidazolidine]-2',5'-dione]			88%	100%					
79%	8%	47%	-4%	1000 nM		CC1(C)CC2(NC(=O)NC2=O)c2cc(Cl)ccc2O1 (stereo not drawn) [6-Chloro-2,2-dimethyl-spiro-[chroman-4,4'-imidazolidine]-2',5'-dione]	78%	95%	89%	100%	11%	60%	47%	86%	lenticular opacities on the 16th day (in words) ([2]; 5 mg/kg oral once a day): lenticular opacities were not observed; lenticular opacities on the 16th day (in words) ([2]; 25 mg/kg oral once a day): lenticular opacities were not observed; inhibition effect on cataract formation (in words) ([2]; galactosemic rats, FIG. 1 and Table 3): superior to the control compound; lenticular opacities, number with grade + ([2]; left, 1 mg/kg oral once a day): 1; lenticular opacities, number with grade - (no opacity) ([2]; left, 1 mg/kg oral once a day): 5; lenticular opacities, number with grade - (no opacity) ([2]; left, 5 mg/kg oral once a day): 6; lenticular opacities, number with grade - (no opacity) ([2]; left, 25 mg/kg oral once a day): 6; lenticular opacities, number with grade + ([2]; right, 1 mg/kg oral once a day): 1; lenticular opacities, number with grade - (no opacity) ([2]; right, 1 mg/kg oral once a day): 5; lenticular opacities, number with grade - (no opacity) ([2]; right, 5 mg/kg oral once a day): 6; lenticular opacities, number with grade - (no opacity) [2, 12]: 6; Inhibition of galactitol accumulation ([3]; lens, 1 mg/kg oral once a day): 2%; Inhibition of galactitol accumulation ([3]; lens, 5 mg/kg oral once a day): 19%; Inhibition of galactitol accumulation ([3]; lens, 25 mg/kg oral once a day): 46%; Inhibition of galactitol accumulation [3, 13]: 5%; Inhibition of galactitol accumulation [3, 14]: 50%; Inhibition of galactitol accumulation [3, 15]: 74%; inhibitory effect on galactitol accumulation in the sciatic nerve relative to the control compound ([3]; sciatic nerve, vs control compound): five times or more; inhibition of galactitol accumulation relative to the control compound ([3]; vs control compound): remarkably superior to the control compound
92%	31%	84%	0%	400 nM	77 nM	CC1CC2(NC(=O)NC2=O)c2cc(Cl)ccc2O1 (stereo not drawn) [6-Chloro-2-methyl-spiro-[chroman-4,4'-imidazolidine]-2',5'-dione]			97%	82%					higher activities such as the inhibition of sorbitol accumulation, predominant diastereomer compared with the other isomer [1]: 3-5 times; superior effect on the inhibition of sorbitol accumulation in comparison with the control compound [1]: 2-10 times
70%	12%	40%	0%	2000 nM		CC1(C)CC2(NC(=O)NC2=O)c2cc(F)ccc2O1 (stereo not drawn) [6-Fluoro-2,2-dimethyl-spiro-[chroman-4,4'-imidazolidine]-2',5'-dione]	72%	81%	81%	93%	35%	58%	22%	33%	
91%	31%	77%	7%	500 nM	180 nM	CC1CC2(NC(=O)NC2=O)c2cc(F)ccc2O1 (stereo not drawn) [6-Fluoro-2-methyl-spiro-[chroman-4,4'-imidazolidine]-2',5'-dione]	93%	100%	96%	100%	43%	80%	39%	100%	higher activities such as the inhibition of sorbitol accumulation, predominant diastereomer compared with the other isomer [1]: 3-5 times; superior effect on the inhibition of sorbitol accumulation in comparison with the control compound [1]: 2-10 times
78%	17%	53%	2%			O=C1NC(=O)C2(CCOc3ccc(F)cc32)N1 (stereo not drawn) [6-fluoro-spiro-[chroman-4,4'-imidazolidine]-2',5'-dione, reference compound]	62%	67%	77%	88%	-29%	41%	26%	15%	lenticular opacities on the 16th day (in words) ([2]; 25 mg/kg oral once a day): lenticular opacities were not observed; lenticular opacities, number with grade ++ ([2]; left, 1 mg/kg oral once a day): 3; lenticular opacities, number with grade +++ ([2]; left, 1 mg/kg oral once a day): 3; lenticular opacities, number with grade + ([2]; left, 5 mg/kg oral once a day): 4; lenticular opacities, number with grade - (no opacity) ([2]; left, 5 mg/kg oral once a day): 2; lenticular opacities, number with grade - (no opacity) ([2]; left, 25 mg/kg oral once a day): 6; lenticular opacities, number with grade ++ ([2]; right, 1 mg/kg oral once a day): 2; lenticular opacities, number with grade +++ ([2]; right, 1 mg/kg oral once a day): 4; lenticular opacities, number with grade + ([2]; right, 5 mg/kg oral once a day): 4; lenticular opacities, number with grade - (no opacity) ([2]; right, 5 mg/kg oral once a day): 2; lenticular opacities, number with grade - (no opacity) [2, 12]: 6; Inhibition of galactitol accumulation ([3]; lens, 1 mg/kg oral once a day): -11%; Inhibition of galactitol accumulation ([3]; lens, 5 mg/kg oral once a day): 5%; Inhibition of galactitol accumulation ([3]; lens, 25 mg/kg oral once a day): 22%; Inhibition of galactitol accumulation [3, 13]: 1%; Inhibition of galactitol accumulation [3, 14]: -12%; Inhibition of galactitol accumulation [3, 15]: 17%
						CC1CC2(NC(=O)NC2=O)c2ccc(Cl)cc2O1 (stereo not drawn) [7-Chloro-2-methyl-spiro-[chroman-4,4'-imidazolidine]-2',5'-dione]	83%								
					43 nM	CC1CC2(NC(=O)NC2=O)c2cc(Cl)ccc2O1 (stereo not drawn) [d-6-chloro-2-methyl-spiro-[chromane-4,4'-imidazolidine]-2',5'-dione]									activity of the d-type relative to the dl-type product (aldose reductase; d-type vs dl-type product): about twice
					93 nM	CC1CC2(NC(=O)NC2=O)c2cc(F)ccc2O1 (stereo not drawn) [d-6-fluoro-2-methyl-spiro-[chromane-4,4'-imidazolidine]-2',5'-dione]									activity of the d-type relative to the dl-type product (aldose reductase; d-type vs dl-type product): about twice
